Test results taken from patent publication US20160220677A1, “STABLE AQUEOUS COMPOSITIONS OF PROSTGLANDIN AGONIST PRODRUGS AND METHODS FOR USE THEREOF” (Allergan, Inc., priority 2009, published 2016).

Assay: Aqueous stability of formulations, % recovery by HPLC
Assay type: physicochemical
Settings: 30° C.; 45 days; each formulation (Formulations 1-4)
Protocol: The aqueous stability of invention compositions was evaluated using Compounds 2 and 3.
The formulations were analyzed by HPLC with the following measurement parameters:
Column: BioWidePore C18 (SUPELCO), 4.6 mm×25 cm, 5 μm Mobile Phase A: 0.1% (V/V) trifluoroacetic acid (TFA) in di-water, 0.8 micron filtered Mobile Phase B: 100% acetonitrile, 0.8 micron filtered Column temp: Ambient Injection volume: 30 μL
Flow: 1.0 mL/min Run time: 25 minutes Sample diluent: 50% acetonitrile in di-water
Using the above HPLC parameters, the following stability data was generated: […]

stability in each formulation: stable
Structure (SMILES): CCCCCC(O)c1ccc(N2C(=O)CC[C@@H]2CCCc2ccc(C(=O)OCCO)s2)cc1 (stereo partly shown) [Compound 2]
